Like-named read-outs stand apart in the source and are kept apart here.
Assays:
Experiment in all cases: Kinase selectivity, scanMAX Kinase assay panel (DiscoverX), % control at 1 uM
Type in all cases: binding
[1] = target: T1, scanMAX Kinase assay panel (Homo sapiens, UniProt P00519, T315I); conditions: 1 uM, read-out: Percent Control (%)
T1 construct: purchased DiscoverX
Summary of the method: (§1)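 Read-out is percent of control, derived from the signal with compound relative to positive and negative controls: (compound − positive)/(negative − positive) × 100. Each enzyme received test drug at 1 uM in DMSO, and values under 35% count as active.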

[2] = target: T2, scanMAX Kinase assay panel (Homo sapiens, UniProt P49336); conditions: CDK8; 1 uM; read-out: Percent Control (%)
T2 construct: purchased DiscoverX
Summary of the method: as §1

[3] = target: T3, scanMAX Kinase assay panel (Homo sapiens, UniProt P49674); conditions: CSNK1E; 1 uM; read-out: Percent Control (%)
T3 construct: purchased DiscoverX
Summary of the method: as §1

[4] = target: T4, scanMAX Kinase assay panel (Homo sapiens, UniProt P54753); conditions: EPHB3; 1 uM; read-out: Percent Control (%)
T4 construct: purchased DiscoverX
T4 sequence (P54753 34-998): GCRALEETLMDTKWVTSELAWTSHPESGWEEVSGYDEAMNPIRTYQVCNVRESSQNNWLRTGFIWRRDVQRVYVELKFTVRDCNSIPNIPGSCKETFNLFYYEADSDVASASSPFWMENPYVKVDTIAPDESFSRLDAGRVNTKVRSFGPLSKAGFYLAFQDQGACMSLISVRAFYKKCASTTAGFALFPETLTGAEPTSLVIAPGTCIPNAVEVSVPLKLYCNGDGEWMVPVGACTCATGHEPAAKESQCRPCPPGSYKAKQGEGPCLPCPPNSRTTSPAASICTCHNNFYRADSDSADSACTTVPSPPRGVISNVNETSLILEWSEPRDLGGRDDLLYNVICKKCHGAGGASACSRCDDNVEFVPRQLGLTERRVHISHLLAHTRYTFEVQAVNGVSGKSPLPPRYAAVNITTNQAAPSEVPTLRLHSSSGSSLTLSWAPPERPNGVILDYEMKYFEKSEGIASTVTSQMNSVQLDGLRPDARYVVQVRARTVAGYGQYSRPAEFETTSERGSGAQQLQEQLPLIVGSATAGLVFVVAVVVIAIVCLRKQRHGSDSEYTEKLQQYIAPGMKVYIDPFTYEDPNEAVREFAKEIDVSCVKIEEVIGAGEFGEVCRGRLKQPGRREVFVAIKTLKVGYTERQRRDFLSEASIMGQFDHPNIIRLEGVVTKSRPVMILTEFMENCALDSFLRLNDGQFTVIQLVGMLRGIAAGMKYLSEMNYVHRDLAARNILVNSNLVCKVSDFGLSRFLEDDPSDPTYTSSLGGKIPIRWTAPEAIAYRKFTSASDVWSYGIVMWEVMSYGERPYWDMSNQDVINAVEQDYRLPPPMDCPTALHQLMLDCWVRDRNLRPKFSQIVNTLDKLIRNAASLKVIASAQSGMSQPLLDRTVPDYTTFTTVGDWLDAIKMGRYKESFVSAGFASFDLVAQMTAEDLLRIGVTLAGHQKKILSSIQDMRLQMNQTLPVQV
Summary of the method: as §1

[5] = target: T5, scanMAX Kinase assay panel (Homo sapiens, UniProt Q96PY6); conditions: NEK1; 1 uM; read-out: Percent Control (%)
T5 construct: purchased DiscoverX
T5 sequence (Q96PY6 1-1258): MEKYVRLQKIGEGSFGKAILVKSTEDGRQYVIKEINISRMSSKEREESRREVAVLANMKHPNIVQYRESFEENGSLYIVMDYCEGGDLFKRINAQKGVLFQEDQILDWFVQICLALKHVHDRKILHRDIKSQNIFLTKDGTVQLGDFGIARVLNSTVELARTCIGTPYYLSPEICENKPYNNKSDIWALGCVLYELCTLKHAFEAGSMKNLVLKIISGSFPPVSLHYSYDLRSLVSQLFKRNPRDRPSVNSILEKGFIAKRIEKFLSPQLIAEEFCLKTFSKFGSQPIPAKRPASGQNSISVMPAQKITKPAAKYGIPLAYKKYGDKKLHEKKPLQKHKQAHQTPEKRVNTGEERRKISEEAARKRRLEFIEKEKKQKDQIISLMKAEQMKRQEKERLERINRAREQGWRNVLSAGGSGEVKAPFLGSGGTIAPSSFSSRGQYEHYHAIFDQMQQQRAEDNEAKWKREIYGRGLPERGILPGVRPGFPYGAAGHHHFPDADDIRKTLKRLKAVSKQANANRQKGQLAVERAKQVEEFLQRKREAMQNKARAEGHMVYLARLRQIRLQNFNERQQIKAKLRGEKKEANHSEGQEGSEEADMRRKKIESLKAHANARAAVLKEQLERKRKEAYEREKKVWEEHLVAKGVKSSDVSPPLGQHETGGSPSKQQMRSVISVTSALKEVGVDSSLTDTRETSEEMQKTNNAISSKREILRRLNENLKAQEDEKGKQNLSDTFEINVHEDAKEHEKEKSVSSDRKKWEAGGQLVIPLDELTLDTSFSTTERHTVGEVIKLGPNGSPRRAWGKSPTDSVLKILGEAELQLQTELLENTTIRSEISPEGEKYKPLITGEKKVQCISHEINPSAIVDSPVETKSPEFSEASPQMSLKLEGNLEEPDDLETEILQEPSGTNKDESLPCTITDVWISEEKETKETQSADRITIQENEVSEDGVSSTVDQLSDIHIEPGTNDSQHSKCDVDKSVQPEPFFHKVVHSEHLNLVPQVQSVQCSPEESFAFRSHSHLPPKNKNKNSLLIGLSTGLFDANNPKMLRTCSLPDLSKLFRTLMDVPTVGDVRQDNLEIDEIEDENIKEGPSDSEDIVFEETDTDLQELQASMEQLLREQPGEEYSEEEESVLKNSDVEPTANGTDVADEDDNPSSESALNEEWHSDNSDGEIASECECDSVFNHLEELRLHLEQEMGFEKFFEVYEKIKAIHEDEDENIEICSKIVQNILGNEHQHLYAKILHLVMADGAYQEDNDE
Summary of the method: as §1

[6] = target: T6, scanMAX Kinase assay panel (Homo sapiens, UniProt Q9H0K1); conditions: SIK2; 1 uM; read-out: Percent Control (%)
T6 construct: purchased DiscoverX
Summary of the method: as §1

[7] = target: T7, scanMAX Kinase assay panel (Homo sapiens, UniProt Q9UEW8); conditions: STK39; 1 uM; read-out: Percent Control (%)
T7 construct: purchased DiscoverX
Summary of the method: as §1

T6 sequence (Q9H0K1 whole entry): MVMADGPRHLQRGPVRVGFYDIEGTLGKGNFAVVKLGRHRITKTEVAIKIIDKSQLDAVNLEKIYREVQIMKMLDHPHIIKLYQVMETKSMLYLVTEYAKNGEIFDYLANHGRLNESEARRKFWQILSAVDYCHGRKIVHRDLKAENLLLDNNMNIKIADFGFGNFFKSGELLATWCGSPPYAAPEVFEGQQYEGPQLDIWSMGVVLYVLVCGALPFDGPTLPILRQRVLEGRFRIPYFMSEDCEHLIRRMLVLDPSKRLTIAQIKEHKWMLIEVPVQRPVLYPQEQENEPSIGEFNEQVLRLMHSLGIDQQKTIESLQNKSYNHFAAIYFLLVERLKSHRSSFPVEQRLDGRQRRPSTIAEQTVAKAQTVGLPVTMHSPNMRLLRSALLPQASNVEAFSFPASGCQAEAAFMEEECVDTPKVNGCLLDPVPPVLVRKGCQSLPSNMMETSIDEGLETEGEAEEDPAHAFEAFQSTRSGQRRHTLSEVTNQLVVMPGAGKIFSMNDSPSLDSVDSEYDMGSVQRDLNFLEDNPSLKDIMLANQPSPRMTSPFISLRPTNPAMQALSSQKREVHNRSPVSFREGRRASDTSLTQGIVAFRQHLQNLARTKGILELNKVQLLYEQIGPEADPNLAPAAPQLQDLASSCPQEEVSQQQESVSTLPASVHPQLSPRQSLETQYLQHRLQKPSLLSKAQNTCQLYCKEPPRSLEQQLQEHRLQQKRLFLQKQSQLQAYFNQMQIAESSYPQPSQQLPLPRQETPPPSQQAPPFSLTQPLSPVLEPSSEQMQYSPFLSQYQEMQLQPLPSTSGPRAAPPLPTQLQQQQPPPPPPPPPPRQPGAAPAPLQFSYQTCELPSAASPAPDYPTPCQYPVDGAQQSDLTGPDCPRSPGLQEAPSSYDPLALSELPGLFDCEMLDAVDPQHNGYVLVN
T2 sequence (P49336 whole entry): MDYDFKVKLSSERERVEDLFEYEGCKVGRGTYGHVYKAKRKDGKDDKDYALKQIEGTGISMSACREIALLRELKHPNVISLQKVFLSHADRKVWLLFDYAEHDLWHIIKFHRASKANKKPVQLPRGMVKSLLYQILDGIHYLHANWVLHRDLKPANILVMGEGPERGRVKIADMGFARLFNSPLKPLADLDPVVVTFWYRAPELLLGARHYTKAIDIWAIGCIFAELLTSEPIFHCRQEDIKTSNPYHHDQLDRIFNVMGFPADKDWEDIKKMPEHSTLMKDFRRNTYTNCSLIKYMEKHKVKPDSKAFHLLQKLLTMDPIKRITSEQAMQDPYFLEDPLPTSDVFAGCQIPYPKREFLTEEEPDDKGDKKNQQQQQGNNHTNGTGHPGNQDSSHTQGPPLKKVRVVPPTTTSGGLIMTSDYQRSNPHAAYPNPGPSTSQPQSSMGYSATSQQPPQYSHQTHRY
T3 sequence (P49674 whole entry): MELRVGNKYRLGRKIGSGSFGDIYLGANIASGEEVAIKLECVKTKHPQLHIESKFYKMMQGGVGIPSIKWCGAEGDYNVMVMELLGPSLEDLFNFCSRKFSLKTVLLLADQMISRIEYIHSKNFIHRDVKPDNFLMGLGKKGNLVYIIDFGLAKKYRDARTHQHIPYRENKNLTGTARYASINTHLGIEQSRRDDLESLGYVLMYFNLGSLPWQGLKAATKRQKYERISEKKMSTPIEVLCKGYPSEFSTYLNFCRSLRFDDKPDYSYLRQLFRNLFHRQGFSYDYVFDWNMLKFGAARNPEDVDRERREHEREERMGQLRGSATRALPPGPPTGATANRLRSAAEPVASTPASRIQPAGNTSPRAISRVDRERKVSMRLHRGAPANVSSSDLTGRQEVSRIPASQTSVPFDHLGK

| SMILES | remaining binding at 1 µM ([1]; ABL1 (T315I)-nonphosphorylated) | remaining binding at 1 µM ([1]; ABL1 (T315I)-phosphorylated) | remaining binding at 1 µM [2] | remaining binding at 1 µM [3] | remaining binding at 1 µM [4] | remaining binding at 1 µM [5] | remaining binding at 1 µM [6] | remaining binding at 1 µM [7] |
| --- | --- | --- | --- | --- | --- | --- | --- | --- |
| Cc1ccc(NC(=O)C2(C(=O)Nc3ccc(F)cc3)CC2)cc1C#Cc1cnc2c(Nc3cnn(C(C)C)c3)cccn12 [Example 78] | 100% | 100% | 100% | 94% | 100% | 100% | 53% | 89% |
| Cc1cn(-c2cc(NC(=O)c3ccc(C)c(C#Cc4cnc5c(Nc6cnn(C)c6)cccn45)c3)cc(C(F)(F)F)c2)cn1 [Example 12, 4-methyl-N-(3-(4-methyl-1H-imidazol-1-yl)-5-(trifluoromethyl)phenyl)-3-((8-((1-methyl-1H-pyrazol-4-yl)amino)imidazo[1,2-a]pyridin-3-yl)ethynyl)benzamide] | 15% | 15% | 31% | 99% | 100% | 96% | 58% | 87% |
| Cc1ccc(C(=O)Nc2ccc(CN3CCN(C)CC3)c(C(F)(F)F)c2)cc1C#Cc1cnc2c(Nc3cnn(C)c3)cccn12 [Example 1, 4-methyl-3-((8-((1-methyl-1H-pyrazol-4-yl)amino)imidazo[1,2-a]pyridin-3-yl)ethynyl)-N-(4-((4-methylpiperazin-1-yl)methyl)-3-(trifluoromethyl)phenyl)benzamide] | 1% | 1% | 4% | 90% | 47% | 52% | 44% | 97% |

From patent US10870647B2, “Imidazopyridine derivative, method for preparing same, and pharmaceutical composition containing same as active ingredient for preventing or treating cancer” (DAEGU-GYEONGBUK MEDICAL INNOVATION FOUNDATION, priority 2016, dated 2020)
